Data published in PMC9860845, “Synthesis, DFT Studies, Molecular Docking and Biological Activity Evaluation of Thiazole-Sulfonamide Derivatives as Potent Alzheimer’s Inhibitors” (Molecules, 2023).
Like-named read-outs stand apart in the source and are kept apart here.

What was measured:
[1] = biological target: acetylcholinesterase (AChE) (Homo sapiens, UniProt P22303); assay: biochemical
[2] = biological target: butyrylcholinesterase (BuChE) (Homo sapiens, UniProt P06276); assay: biochemical
[3] = Ellman method, pH 7.7, 37 °C, triplicate, ± SEM, read-out: AchE IC50
[4] = Ellman method, pH 7.7, 37 °C, triplicate, ± SEM, read-out: BuChE IC50

Chain of acetylcholinesterase (AChE) (P22303 32-614, species assumed): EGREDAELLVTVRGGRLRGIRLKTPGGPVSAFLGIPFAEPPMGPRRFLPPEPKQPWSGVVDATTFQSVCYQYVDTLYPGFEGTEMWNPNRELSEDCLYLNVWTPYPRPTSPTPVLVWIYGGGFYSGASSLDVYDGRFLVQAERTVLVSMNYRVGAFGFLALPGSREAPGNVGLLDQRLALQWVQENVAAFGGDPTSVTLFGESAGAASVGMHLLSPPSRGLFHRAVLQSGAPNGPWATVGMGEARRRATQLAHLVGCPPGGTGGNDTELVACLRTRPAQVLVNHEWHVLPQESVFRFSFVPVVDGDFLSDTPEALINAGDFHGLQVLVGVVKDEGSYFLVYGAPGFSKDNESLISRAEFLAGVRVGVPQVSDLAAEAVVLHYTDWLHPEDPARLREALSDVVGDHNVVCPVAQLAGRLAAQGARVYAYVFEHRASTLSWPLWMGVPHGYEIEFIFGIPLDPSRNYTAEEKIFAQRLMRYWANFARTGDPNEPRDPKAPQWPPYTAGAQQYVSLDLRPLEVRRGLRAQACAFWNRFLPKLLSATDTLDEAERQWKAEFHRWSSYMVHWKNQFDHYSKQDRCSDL
Chain of butyrylcholinesterase (BuChE) (P06276 29-602): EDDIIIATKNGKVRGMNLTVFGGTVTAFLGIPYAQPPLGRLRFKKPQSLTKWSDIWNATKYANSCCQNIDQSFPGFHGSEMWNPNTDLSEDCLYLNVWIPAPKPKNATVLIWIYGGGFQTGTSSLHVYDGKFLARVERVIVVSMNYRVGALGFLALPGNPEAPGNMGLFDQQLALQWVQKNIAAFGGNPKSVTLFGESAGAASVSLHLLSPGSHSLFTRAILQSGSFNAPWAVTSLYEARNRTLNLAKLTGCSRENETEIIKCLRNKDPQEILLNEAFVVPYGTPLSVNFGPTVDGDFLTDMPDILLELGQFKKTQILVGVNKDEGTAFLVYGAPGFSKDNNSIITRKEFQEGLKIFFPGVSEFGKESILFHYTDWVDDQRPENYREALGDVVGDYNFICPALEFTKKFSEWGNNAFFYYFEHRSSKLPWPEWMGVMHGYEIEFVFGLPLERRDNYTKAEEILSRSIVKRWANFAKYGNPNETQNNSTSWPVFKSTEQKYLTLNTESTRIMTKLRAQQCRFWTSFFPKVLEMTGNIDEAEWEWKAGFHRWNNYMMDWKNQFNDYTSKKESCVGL

Compound | IC50 [1, 3] [nM] | IC50 [2, 4] [nM] | IC50 [1] [nM] | IC50 [2] [nM]
O=[N+]([O-])c1cccc(-c2csc(NNS(=O)(=O)c3cc(Cl)cc(Cl)c3O)n2)c1 [analog 1, 3,5-Dichlro-2-hydroxy-N′-(4-(3-nitrophenyl)thiazol-2-yl)benzenesulfonohydrazide] | 100 ± 50 | 200 ± 50 | – | –
O=[N+]([O-])c1cccc(-c2csc(NNS(=O)(=O)c3ccc(Cl)cc3)n2)c1 [analog 2, 4-Chloro-N′-(4-(3-nitrophenyl)thiazol-2-yl)benzenesulfonohydrazide] | 1900 ± 100 | 2700 ± 100 | – | –
O=[N+]([O-])c1cccc(-c2csc(NNS(=O)(=O)c3cccc([N+](=O)[O-])c3)n2)c1 [analog 3, 3-Nitro-N′-(4-(3-nitrophenyl)thiazol-2-yl)benzenesulfonohydrazide] | – | – | 2900 ± 100 | 3800 ± 100
Cc1ccc([N+](=O)[O-])cc1S(=O)(=O)NNc1nc(-c2cccc([N+](=O)[O-])c2)cs1 [analog 4, 2-Methyl-5-nitro-N′-(4-(3-nitrophenyl)thiazol-2-yl)benzenesulfonohydrazide] | – | – | 3200 ± 100 | 6100 ± 200
O=[N+]([O-])c1ccc(S(=O)(=O)NNc2nc(-c3ccccc3)cs2)cc1 [analog 6, 4-Nitro-N′-(4-phenylthiazol-2-yl)benzenesulfonohydrazide] | 11400 ± 200 | 14300 ± 300 | – | –
O=S(=O)(NNc1nc(-c2ccc(Cl)cc2)cs1)c1ccc(Cl)cc1 [analog 7, 4-Chloro-N′-(4-(4-chlorophenyl)thiazol-2-yl)benzenesulfonohydrazide] | 2600 ± 100 | 4200 ± 100 | – | –
O=S(=O)(NNc1nc(-c2ccc(-c3ccccc3)cc2)cs1)c1ccc(Cl)cc1 [analog 8, N′-(4-([1,1′-biphenyl]-4-yl)thiazol-2-yl)-4-chlorobenzenesulfonohydrazide] | 7300 ± 100 | 9200 ± 100 | – | –
O=S(=O)(NNc1nc(-c2ccc(Cl)cc2)cs1)c1cc(Cl)cc(Cl)c1O [analog 9, 3,5-Dichloro-N′-(4-(4-chlorophenyl)thiazol-2-yl)-2-hydroxybenzenesulfonohydrazide] | 400 ± 50 | 700 ± 50 | – | –
Cc1ccc([N+](=O)[O-])cc1S(=O)(=O)NNc1nc(-c2ccc(Cl)c(Cl)c2)cs1 [analog 10, N′-(4-(3,4-dichlorophenyl)thiazol-2-yl)-2-methyl-5-nitrobenzenesulfonohydrazide] | 200 ± 50 | 600 ± 50 | – | –
Cc1ccc([N+](=O)[O-])cc1S(=O)(=O)NNc1nc(-c2ccc(Cl)cc2)cs1 [analog 11, N′-(4-(4-chlorophenyl)thiazol-2-yl)-2-methyl-5-nitrobenzenesulfonohydrazide] | 3100 ± 100 | 4400 ± 100 | – | –
O=[N+]([O-])c1cccc(S(=O)(=O)NNc2nc(-c3ccc(Cl)c(Cl)c3)cs2)c1 [analog 13, N′-(4-(3,4-dichlorophenyl)thiazol-2-yl)-3-nitrobenzenesulfonohydrazide] | 300 ± 100 | 1400 ± 100 | – | –
O=[N+]([O-])c1cccc(S(=O)(=O)NNc2nc(-c3ccc(Cl)cc3)cs2)c1 [analog 14, N′-(4-(4-chlorophenyl)thiazol-2-yl)-3-nitrobenzenesulfonohydrazide] | 1200 ± 100 | 2700 ± 100 | – | –
O=S(=O)(NNc1nc(-c2ccc(Cl)c(Cl)c2)cs1)c1ccc(Cl)cc1 [analog 15, 4-Chloro-N′-(4-(3,4-dichlorophenyl)thiazol-2-yl)benzenesulfonohydrazide] | 400 ± 100 | 900 ± 100 | – | –
Cc1ccc([N+](=O)[O-])cc1S(=O)(=O)NNc1nc(-c2ccc(-c3ccccc3)cc2)cs1 [analog 16, N′-(4-([1,1′-biphenyl]-4-yl)thiazol-2-yl)-2-methyl-5-nitrobenzenesulfonohydrazide] | 300 ± 50 | 300 ± 50 | – | –
O=[N+]([O-])c1ccc([N+](=O)[O-])c(S(=O)(=O)NNc2nc(-c3ccc(-c4ccccc4)cc3)cs2)c1 [analog 19, N′-(4-([1,1′-biphenyl]-4-yl)thiazol-2-yl)-2,5-dinitrobenzenesulfonohydrazide] | – | – | 3100 ± 100 | 4300 ± 100
O=[N+]([O-])c1ccc(S(=O)(=O)NNc2nc(-c3cccc([N+](=O)[O-])c3)cs2)cc1 [analog 20, 4-Nitro-N′-(4-(3-nitrophenyl)thiazol-2-yl)benzenesulfonohydrazide] | – | – | 3500 ± 100 | 5500 ± 100
O=[N+]([O-])c1ccc(S(=O)(=O)NNc2nc(-c3ccc(-c4ccccc4)cc3)cs2)cc1 [analog 21, N′-(4-([1,1′-biphenyl]-4-yl)thiazol-2-yl)-4-nitrobenzenesulfonohydrazide] | 3200 ± 100 | 5400 ± 100 | – | –
